This is an account of results in patent publication US11098032B2, “Pyran dervatives as CYP11A1 (cytochrome P450 monooxygenase 11A1) inhibitors” (ORION CORPORATION, priority 2016, dated 2021).

Structures are written as SMILES. pIC50: −log10 of the molar value.

The target in the test is T1, CYP11A1 (Homo sapiens, UniProt P05108).
T1 construct: human H295R adrenocortical carcinoma cell line was used as source of enzyme; endogenous in cells; host or cells: H295R human adrenocortical carcinoma cells
T1 sequence (P05108 40-521): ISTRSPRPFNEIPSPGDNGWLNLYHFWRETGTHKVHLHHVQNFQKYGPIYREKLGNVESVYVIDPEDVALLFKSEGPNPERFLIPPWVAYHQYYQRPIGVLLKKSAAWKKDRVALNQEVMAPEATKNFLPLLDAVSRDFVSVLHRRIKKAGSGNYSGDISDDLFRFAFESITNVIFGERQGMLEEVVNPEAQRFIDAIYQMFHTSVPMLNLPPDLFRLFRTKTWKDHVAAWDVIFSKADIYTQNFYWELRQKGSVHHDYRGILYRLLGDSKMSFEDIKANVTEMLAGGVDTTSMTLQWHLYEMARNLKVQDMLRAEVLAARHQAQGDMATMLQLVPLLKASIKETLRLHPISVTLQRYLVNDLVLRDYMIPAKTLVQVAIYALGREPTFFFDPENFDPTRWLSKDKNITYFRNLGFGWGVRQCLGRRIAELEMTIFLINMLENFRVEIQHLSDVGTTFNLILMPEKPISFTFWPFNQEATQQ
Nature of the test: CYP11A1 inhibition: modified isocaproic acid release assay (IARA) in H295R cells. It is filed as cell-based. Conditions: human H295R adrenocortical carcinoma cells treated three days, 3 nM [24,25-3H]-labelled cholesterol, 1% DMSO, 10 concentrations in duplicates; read-out: IC50 of the test compounds on CYP11A1 inhibition. In outline:
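Cholesterol side-chain cleavage followed as tritiated isocaproic acid in charcoal-extracted medium, counted by scintillation. Substrate was 3 nM [24,25-3H]-cholesterol on human H295R cells exposed for three days to ten compound concentrations (duplicates, 1% DMSO); IC50 derived.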
Consider `N#CCS(=O)(=O)N1CCC(COc2coc(CN3Cc4ccccc4C3)cc2=O)CC1` [Compound 254, 2-((4-(((6-(Isoindolin-2-ylmethyl)-4-oxo-4H-pyran-3-yl)oxy)methyl)piperidin-1-yl)sulfonyl)acetonitrile], for which the pIC50 was more than 6.82.

In the case of `O=c1cc(CN2Cc3ccccc3C2)occ1OCc1ccc(S(=O)(=O)NCCO)cc1` [Compound 15, N-(2-Hydroxyethyl)-4-(((6-(isoindolin-2-ylmethyl)-4-oxo-4H-pyran-3-yl)-oxy)methyl)benzenesulfonamide], the pIC50 is more than 6.82. Turning to `CS(=O)(=O)N1CCC(COc2coc(CN3CCc4ccccc4C3)cc2=O)CC1` [Compound 179, 2-((3,4-Dihydroisoquinolin-2(1H)-yl)methyl)-5-((1-(methylsulfonyl)piperidin-4-yl)methoxy)-4H-pyran-4-one], the pIC50 was 5.70 to 6.52. Then `O=C(c1ccc(COc2coc(CN3Cc4ccc(F)cc4C3)cc2=O)cc1)N1CCC1` [Compound 150, 5-((4-(Azetidine-1-carbonyl)benzyl)oxy)-2-((5-fluoroisoindolin-2-yl)methyl)-4H-pyran-4-one], with 5.70 to 6.52.

For the compound `CNC(=O)/C=C/c1ccc(COc2coc(CN3CCc4ccccc4C3)cc2=O)cc1` [Compound 148, (E)-3-(4-(((6-((3,4-Dihydroisoquinolin-2(1H)-yl)methyl)-4-oxo-4H-pyran-3-yl)oxy)methyl)phenyl)-N-methylacrylamide], the negative logarithm of the IC50 (pIC50) is 5.70 to 6.52. Turning to `O=C(c1ccc(COc2coc(CN3Cc4ccc(Cl)cc4C3)cc2=O)cc1)N1CC(F)(F)C1` [Compound 163, 2-((5-Chloroisoindolin-2-yl)methyl)-5-((4-(3,3-difluoroazetidine-1-carbonyl)-benzyl)oxy)-4H-pyran-4-one], the pIC50 was 6.52 to 6.82. In the case of `CC(C)(C)OC(=O)N1CCC[C@@H](COc2coc(CN3Cc4ccccc4C3)cc2=O)C1` [Compound 202, (R)-tert-Butyl 3-(((6-(isoindolin-2-ylmethyl)-4-oxo-4H-pyran-3-yl)oxy)methyl)-piperidine-1-carboxylate], the pIC50 was 5.70 to 6.52. `CS(=O)(=O)N1CCC(COc2coc(CN3Cc4ccc(OC(F)(F)F)cc4C3)cc2=O)CC1` [Compound 205, 5-((1-(Methylsulfonyl)piperidin-4-yl)methoxy)-2-((5-(trifluoromethoxy)-isoindolin-2-yl)methyl)-4H-pyran-4-one]: the negative logarithm of the IC50 (pIC50) was more than 6.82.

On to `CC(=O)OCC(=O)N1CCC(COc2coc(CN3Cc4ccccc4C3)cc2=O)CC1` [Compound 257, 2-(4-(((6-(Isoindolin-2-ylmethyl)-4-oxo-4H-pyran-3-yl)oxy)methyl)piperidin-1-yl)-2-oxoethyl acetate], for which the negative-log IC50 (pIC50) is more than 6.82.
